These results are taken from patent US4293695A, “Furonaphthyridine compounds” (Daiichi Seiyaku Co., Ltd., priority 1978, dated 1981).

Converted amounts (≈) assume the structure as drawn.

One data set deals with K. pneumoniae, Type 1. Nature of the data set: MIC, dilution method on plate culture (heart infusion agar). The class given is cell-based. To be noted: Klebsiella pneumoniae, TYPE1, 10^6/ml bacteria, 37° C., 18 hours, read-out: Minimum Inhibitory Concentration (MIC). As to the method: (§1) Thus, these compounds are very useful anti-bacterial agents. The anti-bacterial activity (in vitro) and the acute toxicity (LD50) of the compounds of this invention are shown in the following Table in comparison with known oxolinic acid.
(§2) *Determined by the standard method of Japan Society of Chemotherapy:
(§3) dilution method on plate culture (heart infusion agar culture), 10^6
(§4) /ml of bacteria were seeded and incubated at 37° C. for 18 hours.

The test system of another data set is S. aureus. Described as above. The format is cell-based. To be noted: Staphylococcus aureus, 10^6/ml bacteria, 37° C., 18 hours, read-out: Minimum Inhibitory Concentration (MIC). As to the method:
as §1, §2, §3, §4

The next data set deals with E. coli NIHJ. The data set is described as above. The class given is cell-based. To be noted: Escherichia coli, 10^6/ml bacteria, 37° C., 18 hours, read-out: Minimum Inhibitory Concentration (MIC). As to the method:
as §1, §2, §3, §4

The test system of another data set is Ser. marcescens 13014. The data set is described as above. The format is cell-based. To be noted: Serratia marcescens, 10^6/ml bacteria, 37° C., 18 hours, read-out: Minimum Inhibitory Concentration (MIC). How it is done:
as §1, §2, §3, §4

The subject of the next data set is Ps. aeruginosa 2063. Described as above. The format is cell-based. To be noted: Pseudomonas aeruginosa, 10^6/ml bacteria, 37° C., 18 hours, read-out: Minimum Inhibitory Concentration (MIC). How it is done: as §1, §2, §3, §4
In another data set the test system is Pr. vulgaris. Described as above. The format is cell-based. To be noted: Proteus vulgaris, 10^6/ml bacteria, 37° C., 18 hours, read-out: Minimum Inhibitory Concentration (MIC). As to the method:
as §1, §2, §3, §4

The test system of a further data set is Pr. mirabilis. Described as above. The class given is cell-based. To be noted: Proteus mirabilis, 10^6/ml bacteria, 37° C., 18 hours, read-out: Minimum Inhibitory Concentration (MIC). As to the method: as §1, §2, §3, §4
The test system of a further data set is Ent. cloacae 12001. The data set is described as above. The class given is cell-based. To be noted: Enterobacter cloacae, 10^6/ml bacteria, 37° C., 18 hours, read-out: Minimum Inhibitory Concentration (MIC). As to the method: as §1, §2, §3, §4
A further data set is described as follows: acute toxicity (LD50). To be noted: mouse, in vivo, iv; mice i.v.
From the text: as §1

What is called LD50 is the dose at which mortality reaches 50%. Lower therefore signals a more toxic substance. For the compound `CCn1cc(C(=O)O)c(=O)c2cc3occc3nc21` [Compound Ia, 5,8-dihydro-5-ethyl-8-oxofuro[3,2-b]-1,8-naphthyridine-7-carboxylic acid], the MIC is 1.6 µg/mL (≈ 6.2 µM) in the data set on K. pneumoniae, Type 1; 3.1 µg/mL (≈ 12 µM) in the data set with S. aureus; at most 0.2 µg/mL with E. coli NIHJ; 0.4 µg/mL (≈ 1.55 µM) in the data set with Ser. marcescens 13014; 3.1 µg/mL (≈ 12 µM) with Ps. aeruginosa 2063; at most 0.2 µg/mL in the data set with Pr. vulgaris. Also, the MIC is at most 0.2 µg/mL in the data set with Pr. mirabilis and 0.4 µg/mL (≈ 1.55 µM) in the data set with Ent. cloacae 12001. The LD50 in the data set “acute toxicity (LD50)” was determined as 221 mg/kg.

For the compound `CCn1cc(C(=O)O)c(=O)c2cc3c(cc21)OCO3` [Oxolinic Acid, 5-ethyl-5,8-dihydro-8-oxo-1,3-dioxolo[4,5-g]quinoline-7-carboxylic acid, reference compound], the MIC in the data set on K. pneumoniae, Type 1 was 3.1 µg/mL (≈ 11.9 µM); in the data set on S. aureus, 3.1 µg/mL (≈ 11.9 µM); in the data set on E. coli NIHJ, at most 0.2 µg/mL; in the data set on Ser. marcescens 13014 it was 0.8 µg/mL (≈ 3.06 µM); in the data set on Ps. aeruginosa 2063 it was 25 µg/mL (≈ 95.7 µM); in the data set on Ent. cloacae 12001 it was 0.8 µg/mL (≈ 3.06 µM).

Turning to `CCn1cc(C(=O)O)c(=O)c2cc3c(nc21)CCO3` [Compound Ib, 5-ethyl-8-oxo-2,3,5,8-tetrahydrofuro[3,2-b]-1,8-naphthyridine-7-carboxylicacid], the MIC in the data set with K. pneumoniae, Type 1 is 0.8 µg/mL (≈ 3.07 µM); in the data set with S. aureus it was 3.1 µg/mL (≈ 11.9 µM); in the data set on E. coli NIHJ, at most 0.2 µg/mL; with Ser. marcescens 13014, at most 0.2 µg/mL; in the data set on Ps. aeruginosa 2063 it was 6.3 µg/mL (≈ 24.2 µM); in the data set with Pr. vulgaris it was at most 0.2 µg/mL. The MIC with Pr. mirabilis and in the data set with Ent. cloacae 12001 was at most 0.2 µg/mL in each case. This compound also registered an LD50 in the data set “acute toxicity (LD50)” of 376 mg/kg.
